Where two headings read alike, the source gives them in different places.
Tests used:
acetylcholinesterase = target: T1, acetylcholinesterase (Homo sapiens, UniProt P22303); experiment: biochemical
T1 construct: purchased Sigma
Experimental: Acetylcholine iodide was used as substrate. Acetylcholinesterase is a commercial product (Sigma). […] After stirring, 1 EU acetylcholinesterase was added. […] Each test was repeated 3 times. The test substances was dissolved in 50% ethyl alcohol.

butyrylcholinesterase = target: T2, butyrylcholinesterase (Homo sapiens, UniProt P06276); experiment: biochemical
T2 construct: purchased Sigma
Experimental: In studying the inhibitory effect of the compounds according to the invention, a modified Elman's method was used. Butyrylcholine iodide was used as substrate. Butyrylcholinesterase is a commercial product (Sigma). Enzyme activity determination was performed in 0,1 M sodium phosphate buffer pH 8,0 at 25 °C. To 1 ml of the buffer, 90 mcl (7,5 MM) butyrylcholine iodide and 45 mcl (10 MM) 5,5'-ditiobis-2-nitrobenzoic acid (DTNB) were added. After stirring, 1 EU butyrylcholinesterase was added. The enzyme reaction was monitored according to the change of absorption at 412 nm in a period of 2 to10 min. The speed of the enzyme reaction was calculated in M/l.sec, using an absorption coefficient of 14,15 .10^3 1/M.cm (Eyer). Each test was repeated 3 times. The substances under study were dissolved in 50% ethyl alcohol. To trace the inhibiting effect, the compounds under study were added in different concentrations to 1,5 ml of phosphate buffer and 1 EU enzyme. They were incubated for 30 min at 25 °C, then butyrylcholine iodide and DTNB were added and the course of the enzyme reaction was monitored according to the description above. […] After a preliminary screening, such concentrations of the test substances were selected that have an inhibiting effect between 20 and 80%. To determine the inhibition constant (Ki), minimum 3 different concentrations of the test compounds under study were used. The inhibition curves for each selected concentration of the inhibitor were made using the method of double reciprocal values (Lineweaver, Burk), substrate concentration being within 90 - 3300 .10^-6 M/l. IC50 values were determined using the log-probit method. The calculations were made using the matlab6 program. IC50 values were made on the basis of experimental data obtained for different concentrations of the compounds manifesting inhibitory activity.

γ-secretase = target: T3, γ-secretase (Homo sapiens, UniProt P49768); experiment: Inhibitory effect on γ-secretase: ELISA of human β-amyloid in the cell medium of APP751-expressing HEK293 cells; type: cell-based; details: for concentrations at which the substances have γ-secretase activity / decrease of β-amyloid quantity in the cell medium: tested at 0,02, 0,2 and 2 µM, Figure 2; for quantity of amyloid β: concentration 0,02 µM; for quantity of amyloid β / γ-Secretase effect: figure 3; for γ-Secretase effect: concentration 2 µM, compared with DAPT
T3 construct: endogenous in cells; host or cells: HEK293 cells stably expressing APP751
Experimental: To a solution of norgalanthamine hydrochloride (0.42 g 1.3560 mmol) in DMF under cooling Et3N (0.19 ml 1.3520 mmol) and N-(3,4-dichlorophenyl)-alanyl-valine (0.50 g 1.5009 mmol) and N-cyclohexyl-N-[β-(N-methylformolino)-ethyl-] carbodiimide (0.64 g 1.5109 mmol) was added. The reaction mixture was stirred for 24 hours at room temperature and the end of reaction was monitored in a system of n-BuOH:AcOH:H2O= 3:1:1 To the reaction mixture 5 % NaHCO3 was add, followed by precipitate formation. The precipitate was washed by suspending in 5 % NaHCO3 and H2O. […] 137-141 °C, yield 37 %, chromatographically pure in a system of CHCl3:MeOH=9:1 and n-BuOH:AcOH:H2O= 3:1:1. IR [cm^-1]: 3384, 3062, 3028, 2930, 1640, 1599, 1280, 1240, 1059, 753, 701. HPLC: Rt= 2.58 and 2.76 min for S and R isomers. 1H NMR (CDCl3, ppm ) δ: 7.10-7.30 (2H, NH), 7.0-6.20 (10H, 5H Ph + H9', H10'+ 3H PhCl), 6.0 (m, 2H, H4', H5'), 4.7-4.4 (m, 4H, CH2NCH2), 4.5 (m, 1H, H1'), 4.14 (m, 1H, H3'), 3.85 (s, 3H, O-CH3), 3.90 (m, 1H, CHCH2Ph), 3.75 (q, 1H, CHCH3), 3.20 (m, 1H, CHCH2Ph), 2.70 (d, J=15.9 Hz, 1H, H2a'), 2.02 (d, J=15.9 Hz, 1H, H2b'), 1.90 (m, CH2), 1.30 (d, , 3H, CHCH3). Elemental analysis - nitrogen determination: C34H36N3Cl2O5, M.M= 636.54 theoretical 6.60 % N, calculated 6.62 % N. Mass spectrometry: C34H36N3Cl2O5, M.M= 636.20 found [M+H]^+=636.55. […] 133-138 °C, yield 35 %, chromatographically pure in a system of CHCl3:MeOH=9:1 and n-BuOH:AcOH:H2O= 3:1:1. IR [cm^-1]: 3338, 2963, 2931, 2874, 1656, 1630, 1599, 1382, 1373, 1279, 1214, 1059. HPLC: Rt= 2.35 and 2.53 min for S and R isomers. 1H NMR (CDCl3, ppm) δ: 7.10-7.30 (2H, NH), 7.0-6.20 (5H, H9', H10', 3H PhCl), 5.90 (m, 2H, H4', H5'), 4.7-4.4 (m, 4H, CH2NCH2), 4.5 (m, 1H, H1'), 4.15 (m, 1H, H3'), 3.86 (s, 3H, O-CH3), 3.85 (m, 1H, H2), 3.75 (q, 1H, CHCH3), 3.20 (m, 1H), 2.70 (d, J=15.9 Hz, 1H, H2a'), 2.40 (m, 1H, CH(CH3)2), 2.02 (d, J=15.9 Hz, 1H, H2b'), 1.90 (m, CH2), 1.30 (d, 3H, CHCH3), 0.80 (d, 6H, 2 x CH3). Elemental analysis - nitrogen determination: C29H33N3Cl2O5, M.M= 588.41 calculated 7.14 % N, found 6.98 % N. Mass spectrometry: C29H33N3Cl2O5, M.M= 587.20 found [M+H]^+=588.45. Example 14 The study of inhibitory effect on γ-secretase of the compounds under the inventions took place on expressing APP751 HEK293 cells using the following methods: (1) cell cultivation of expressing APP751 HEK293 cells, and (2) ELISA (solid-phase sandwich enzyme-linked immunosorbent assay) of human β-amyloid protein. HEK293 cells were cultivated in Dulbecco's modified Eaglr's medium (Applichem, Germany) with added 10% fetal calf serum (Biowhittaker, USA) and 200 U/ml Penicillin and […] Streptomycin (Applichem, Germany) at 37°C and 5% CO2. ELISA kits of human β-amyloid are intended for in vitro quantitative determination of a native or recombinant β-amyloid in serum, supernatant of cell cultures or other biological samples. In short, a monoclonal antibody specific for the amino end of β-amyloid was immobilized for a 96-pit plate. β-amyloid antigen from the standards or from the samples was connected with this first antibody. Then a second antibody was placed for detection of the specific β-amyloid 1 - 42. An anti-rabbit antibody IgG-HRP completed the sandwich. The reaction was visualized by means of 3,3",5,5"-tetramethylbenzidine (TMB) substrate, following by a stop solution. Yellow colour intensity was in direct proportion to the concentration of β-amyloid in the original sample. The sensitivity of these ELISA was < 10 pg/ml β-amyloid. ELISA method was used to study the inhibitory effect on γ-secretase of the compounds obtained according to the invention on expressing APP751 HEK293 cells. The following abbreviations were used: • 1. 6-O-N-[N- (3,4-dichlorophenyl)-D,L-alanyl]-glycil-galanthamine - AG-GAL • 2. […] 6-O-N-[N- (3,4-dichlorophenyl)-D,L-alanyl]-L-leucil-glycil-galanthamine - ALG-GAL • 4. 6-O-N-[N- (3,4-dichlorophenyl)-D,L-alanyl]-L-valyl-glycil-galanthamine - AVG-GAL • 5. N-(3,4-dichlorophenyl)-D,L-alanyl-L-phenylalanine - AF • 6. […]

[1] = 0,1 M sodium phosphate buffer pH 8,0, 25 °C, 30 min preincubation, acetylcholine iodide substrate, read-out: IC50
[2] = 0,1 M sodium phosphate buffer pH 8,0, 25 °C, 30 min preincubation, butyrylcholine iodide substrate, read-out: IC50

T2 sequence (P06276 29-602): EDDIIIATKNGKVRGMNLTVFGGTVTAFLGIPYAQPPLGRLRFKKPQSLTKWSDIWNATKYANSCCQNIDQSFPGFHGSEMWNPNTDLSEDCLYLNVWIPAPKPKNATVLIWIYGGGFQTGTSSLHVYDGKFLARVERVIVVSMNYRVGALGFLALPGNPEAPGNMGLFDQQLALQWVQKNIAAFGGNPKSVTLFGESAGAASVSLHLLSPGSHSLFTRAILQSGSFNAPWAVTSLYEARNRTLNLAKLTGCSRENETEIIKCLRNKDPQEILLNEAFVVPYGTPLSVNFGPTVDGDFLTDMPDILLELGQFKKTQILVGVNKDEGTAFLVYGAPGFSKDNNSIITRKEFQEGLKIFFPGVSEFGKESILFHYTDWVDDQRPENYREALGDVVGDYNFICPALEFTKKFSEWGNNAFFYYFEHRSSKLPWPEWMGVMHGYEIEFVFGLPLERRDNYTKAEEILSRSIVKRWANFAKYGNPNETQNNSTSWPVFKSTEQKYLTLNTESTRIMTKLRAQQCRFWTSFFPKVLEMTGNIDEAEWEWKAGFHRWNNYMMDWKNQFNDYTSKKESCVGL
T1 sequence (P22303 32-614, species assumed): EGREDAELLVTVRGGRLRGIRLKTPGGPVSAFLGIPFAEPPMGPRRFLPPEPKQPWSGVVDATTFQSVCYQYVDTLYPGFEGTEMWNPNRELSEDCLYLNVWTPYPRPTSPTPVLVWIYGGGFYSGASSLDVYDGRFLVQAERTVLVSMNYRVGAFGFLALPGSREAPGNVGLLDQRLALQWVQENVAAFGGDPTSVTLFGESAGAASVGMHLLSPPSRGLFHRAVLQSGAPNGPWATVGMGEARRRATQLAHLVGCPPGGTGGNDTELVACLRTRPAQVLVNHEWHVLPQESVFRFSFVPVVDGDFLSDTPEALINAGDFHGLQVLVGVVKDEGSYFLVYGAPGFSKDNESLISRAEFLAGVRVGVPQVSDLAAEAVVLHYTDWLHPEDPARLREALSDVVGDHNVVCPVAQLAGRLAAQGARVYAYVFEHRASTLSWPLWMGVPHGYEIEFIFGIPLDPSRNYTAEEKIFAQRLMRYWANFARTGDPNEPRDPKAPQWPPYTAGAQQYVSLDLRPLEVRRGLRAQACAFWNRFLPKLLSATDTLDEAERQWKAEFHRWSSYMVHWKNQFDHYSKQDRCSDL

`COc1ccc2c3c1O[C@H]1C[C@@H](O)C=C[C@@]31CCN(C(=O)[C@H](Cc1ccccc1)NC(=O)C(C)Nc1ccc(Cl)c(Cl)c1)C2` (stereo partly drawn) [Compound 5, 11-N-demethyl-11-N-N-[N-(3,4-dichlorophenyl)-D,L-alanyl]-L-phenylalanyl-galanthamine] was tested, and the IC50 (acetylcholinesterase) was 12.5 µM and the IC50 (butyrylcholinesterase) was 0.447 µM.

In the case of `C[C@H](NC(=O)Cc1cc(F)cc(F)c1)C(=O)N[C@H](C(=O)OC(C)(C)C)c1ccccc1` [DAPT, N-[N-(3,5-difluorophenylacetyl)-L-alanyl]-S-phenylglycin tertiary butyl ester, reference compound], the “concentrations at which the quantity of β amyloid is decreased by inhibiting γ-secretase activity” value (γ-secretase; 6 hours incubation, serum-free medium, figure 1) is reported as “higher than 160 nM”.

`COc1ccc2c3c1OC1CC(OC(=O)CNC(=O)C(NC(=O)C(C)Nc4ccc(Cl)c(Cl)c4)C(C)C)C=CC31CCN(C)C2` [Compound 4, 6-O-N-[N-(3,4-dichlorophenyl)-D,L-alanyl]-L-valyl-glycil-galanthamine] was tested, and the “concentrations at which the substances have γ-secretase activity” value (γ-secretase; 6 hours incubation) was “higher than 0,02 µM”, the “decrease of β-amyloid quantity in the cell medium” value (γ-secretase; 6 hours incubation) was “significant decrease” and the IC50 (acetylcholinesterase; [1]) was 8.33 µM. For the same compound, the IC50 (butyrylcholinesterase; [2]) was 0.335 µM.

`COc1ccc2c3c1OC1CC(OC(=O)CNC(=O)C(CC(C)C)NC(=O)C(C)Nc4ccc(Cl)c(Cl)c4)C=CC31CCN(C)C2` [Compound 3, 6-O-N-[N-(3,4-dichlorophenyl)-D,L-alanyl]-L-leucil-glycil-galanthamine] was tested, and the “quantity of amyloid β” value (γ-secretase) was “decreased significantly”, the γ-Secretase effect (γ-secretase) was “comparable with the effect of DAPT” and the IC50 (acetylcholinesterase; [1]) was 3.35 µM. It also gave an IC50 (butyrylcholinesterase; [2]) of 0.612 µM.

With `COc1ccc2c3c1OC1CC(O)C=CC31CCN(C(=O)C(NC(=O)C(C)Nc1ccc(Cl)c(Cl)c1)C(C)C)C2` [Compound 6, 11-N-demethyl-11-N-N-[N-(3,4-dichlorophenyl)-D,L-alanyl]-L-valyl-galanthamine] the IC50 (acetylcholinesterase; [1]) was 31.2 µM and the IC50 (butyrylcholinesterase; [2]) was 0.603 µM.

With `CC(Nc1ccc(Cl)c(Cl)c1)C(=O)N[C@@H](Cc1ccccc1)C(=O)O` (mixture of isomers) [AF, N-(3,4-dichlorophenyl)-D,L-alanyl-L-phenylalanine] the γ-Secretase effect (γ-secretase) was “comparable with the effect of DAPT”.

With `COc1ccc2c3c1O[C@H]1C[C@@H](OC(=O)CNC(=O)C(C)Nc4ccc(Cl)c(Cl)c4)C=C[C@@]31CCN(C)C2` (stereo partly drawn) [Compound 1, 6-O-N-[N-(3,4-dichlorophenyl)-D,L-alanyl]-glycil-galanthamine] the “quantity of amyloid β” value (γ-secretase) was “decreased significantly”, the γ-Secretase effect (γ-secretase) was “no inhibitory effect” and the IC50 (acetylcholinesterase) was 3.98 µM. It also gave an IC50 (butyrylcholinesterase) of 23.7 µM.

Work on `COc1ccc2c3c1OC1CC(OC(=O)CNC(=O)C(Cc4ccccc4)NC(=O)C(C)Nc4ccc(Cl)c(Cl)c4)C=CC31CCN(C)C2` [Compound 2, 6-O-N-[N-(3,4-dichlorophenyl)-D,L-alanyl]-L-phenylalanyl-glycil galanthamine] yielded an IC50 (acetylcholinesterase; [1]) of 3.76 µM and an IC50 (butyrylcholinesterase; [2]) of 10 µM.

With `CC(C)C[C@H](NC(=O)C(C)Nc1ccc(Cl)c(Cl)c1)C(=O)O` (mixture of isomers) [AL, N-(3,4-dichlorophenyl)-D,L-alanyl-L-leucine] the “concentrations at which the substances have γ-secretase activity” value (γ-secretase; 6 hours incubation) was “higher than 0,02 µM” and the “decrease of β-amyloid quantity in the cell medium” value (γ-secretase; 6 hours incubation) was “significant decrease”.
